US12581252B2, “Substituted pyrrolo[3,4-b]pyridines as PI3K-α inhibitors” (Relay Therapeutics, Inc., priority 2020, dated 2026)
pIC50: −log10 of the molar value.

Target: H1047R PIK3CA enzyme (Homo sapiens, UniProt P42336, H1047R)
Assay: ADP-Glo Biochemical PIK3CA Kinase Assay
Conditions: not given

Sequence of H1047R PIK3CA enzyme (P42336 whole entry H1047R): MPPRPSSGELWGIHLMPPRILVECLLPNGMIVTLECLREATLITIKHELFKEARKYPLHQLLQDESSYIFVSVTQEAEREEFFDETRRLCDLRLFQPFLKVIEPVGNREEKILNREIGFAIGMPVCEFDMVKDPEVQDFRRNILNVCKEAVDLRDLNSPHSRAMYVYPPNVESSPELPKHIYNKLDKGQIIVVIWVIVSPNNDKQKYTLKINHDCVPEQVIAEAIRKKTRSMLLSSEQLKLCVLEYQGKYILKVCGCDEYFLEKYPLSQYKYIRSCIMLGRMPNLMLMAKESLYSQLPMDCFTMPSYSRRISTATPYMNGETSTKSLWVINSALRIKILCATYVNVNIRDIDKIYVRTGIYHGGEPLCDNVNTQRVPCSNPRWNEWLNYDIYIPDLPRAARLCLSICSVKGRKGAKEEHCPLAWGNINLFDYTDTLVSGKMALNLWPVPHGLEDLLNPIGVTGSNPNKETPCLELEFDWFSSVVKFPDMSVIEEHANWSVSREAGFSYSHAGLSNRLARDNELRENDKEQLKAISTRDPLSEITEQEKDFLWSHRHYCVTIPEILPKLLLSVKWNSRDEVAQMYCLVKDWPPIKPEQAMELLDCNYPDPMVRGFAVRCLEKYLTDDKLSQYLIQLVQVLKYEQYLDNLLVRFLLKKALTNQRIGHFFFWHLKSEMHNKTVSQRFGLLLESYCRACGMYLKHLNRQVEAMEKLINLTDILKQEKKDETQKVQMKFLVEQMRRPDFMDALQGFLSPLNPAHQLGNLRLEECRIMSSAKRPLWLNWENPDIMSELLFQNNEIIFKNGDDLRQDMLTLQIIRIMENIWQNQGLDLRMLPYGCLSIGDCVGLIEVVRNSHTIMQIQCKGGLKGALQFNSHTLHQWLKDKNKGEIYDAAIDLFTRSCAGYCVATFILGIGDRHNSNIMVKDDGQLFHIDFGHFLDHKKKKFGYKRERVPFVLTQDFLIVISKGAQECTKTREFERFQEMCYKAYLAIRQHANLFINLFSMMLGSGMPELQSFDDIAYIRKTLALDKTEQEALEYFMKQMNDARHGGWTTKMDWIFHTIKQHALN
Sequence of H1047R PIK3CA enzyme (P27986 whole entry partner): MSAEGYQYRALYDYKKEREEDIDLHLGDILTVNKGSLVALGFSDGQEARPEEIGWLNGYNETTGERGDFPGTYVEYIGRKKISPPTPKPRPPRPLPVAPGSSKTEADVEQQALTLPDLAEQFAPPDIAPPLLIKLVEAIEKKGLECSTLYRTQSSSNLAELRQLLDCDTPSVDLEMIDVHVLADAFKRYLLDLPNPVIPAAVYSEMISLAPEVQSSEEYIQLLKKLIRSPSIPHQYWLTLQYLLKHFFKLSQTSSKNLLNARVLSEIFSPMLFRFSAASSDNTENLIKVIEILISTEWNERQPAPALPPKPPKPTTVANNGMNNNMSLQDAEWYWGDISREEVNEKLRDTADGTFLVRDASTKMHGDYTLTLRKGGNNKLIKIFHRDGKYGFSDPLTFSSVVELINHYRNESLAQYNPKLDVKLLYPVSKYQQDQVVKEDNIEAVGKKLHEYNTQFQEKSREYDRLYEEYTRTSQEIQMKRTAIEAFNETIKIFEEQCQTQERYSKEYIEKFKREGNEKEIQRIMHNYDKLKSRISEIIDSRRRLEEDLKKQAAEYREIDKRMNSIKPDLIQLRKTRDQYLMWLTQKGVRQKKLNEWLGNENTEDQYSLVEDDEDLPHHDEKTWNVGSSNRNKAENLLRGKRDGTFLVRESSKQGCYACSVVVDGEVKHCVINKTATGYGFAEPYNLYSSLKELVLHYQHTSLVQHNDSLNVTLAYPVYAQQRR

Q: With O=C(Nc1cccc2c1[C@H](c1cc(F)ccc1Cl)NC2=O)c1cc(F)cc(C(F)(F)F)c1 [Compound I-500] as the molecule, how does the pIC50 read?
A: ≥ 7.00

Q: With CNC(=O)c1cc(NC(=O)c2csc3ccccc23)c2c(c1)C(=O)N[C@H]2c1ccccc1C [Compound I-76, (S)-7-(Benzo[b]thiophene-3-carboxamido)-N-methyl-3-oxo-1-(o-tolyl)isoindoline-5-carboxamide] as the molecule, how does the pIC50 read?
A: ≥ 7.00

Q: With O=C(Nc1cc(-c2ccc3ncccc3c2)cc2c1[C@H](c1cc(F)ccc1Cl)NC2=O)c1cc(F)cc(C(F)(F)F)c1 [Compound I-894] as the molecule, how does the pIC50 read?
A: ≥ 7.00

Q: With C[C@]1(C(=O)Nc2cc(Br)cc3c2[C@@H](c2cc(F)ccc2Cl)NC3=O)CCC[C@@H](C(F)(F)F)C1 (single isomer, unassigned) [Compound I-2261] as the molecule, how does the pIC50 read?
A: ≥ 7.00

Q: With O=C1NC(c2cc(F)ccc2Cl)c2c(NC(=O)N3CC(O)c4ccc(Cl)cc43)cccc21 (mixture of isomers) [Compound I-2464] as the molecule, how does the pIC50 read?
A: ≥ 7.00

Q: With O=C1N[C@@H](c2cc(F)ccc2Cl)c2c(NC(=O)N3C[C@@](O)(C(F)(F)F)c4cc(F)ccc43)cccc21 (single isomer, unassigned) [Compound I-2518] as the molecule, how does the pIC50 read?
A: ≥ 7.00

Q: With N#CCCn1cc(-c2cc(NC(=O)c3cc(F)cc(C(F)(F)F)c3)c3c(c2)C(=O)NC3c2cc(F)ccc2Cl)cn1 (centres unmarked) [Compound I-1397] as the molecule, how does the pIC50 read?
A: ≥ 7.00

Q: With O=C(Nc1cc(-c2cnc(C3CC3)nc2)cc2c1C(c1cc(F)ccc1Cl)NC2=O)c1cc(F)cc(C(F)(F)F)c1 (centres unmarked) [Compound I-822] as the molecule, how does the pIC50 read?
A: ≥ 7.00

Q: With O=C1NC(c2cc(F)ccc2Cl)c2c(NC(=O)[C@H]3C[C@@H](C(F)(F)F)C3)cc(Br)cc21 (some centres unmarked) [Compound I-1989] as the molecule, how does the pIC50 read?
A: 5.00 to 6.00

Q: With CS(C)(=O)=Nc1cc(NC(=O)c2cc(F)cc(C(F)(F)F)c2)c2c(c1)C(=O)NC2c1cc(F)ccc1Cl (centres unmarked) [Compound I-1254] as the molecule, how does the pIC50 read?
A: 6.30 to 7.00

Q: With Cc1ccccc1C1NC(=O)c2c(C#N)ccc(NC(=O)c3csc4ccccc34)c21 (centres unmarked) [Compound I-132, N-(7-Cyano-1-oxo-3-(o-tolyl)isoindolin-4-yl)benzo[b]thiophene-3-carboxamide] as the molecule, how does the pIC50 read?
A: ≥ 7.00

Q: With O=C1N[C@H](c2cc(F)ccc2Cl)c2c(NC(=O)N3C[C@@](O)(C(F)(F)F)c4cc(F)ccc43)cc(C(F)F)cc21 (single isomer, unassigned) [Compound I-2577] as the molecule, how does the pIC50 read?
A: 5.00 to 6.00

Q: With O=C1NC(c2cc(F)ccc2Cl)c2c(NC(=O)N3CCCC3)cc(Br)cc21 (centres unmarked) [Compound I-481] as the molecule, how does the pIC50 read?
A: 4.00 to 5.00

Q: With Cc1cc(Cl)ccc1C1NC(=O)c2cccc(NC(=O)c3nsc4ccccc34)c21 (centres unmarked) [Compound I-133] as the molecule, how does the pIC50 read?
A: 5.00 to 6.00

Q: With COc1cc2c(cn1)N(C(=O)Nc1ccnc3c1C(c1ccccc1C)NC3=O)CC2 (centres unmarked) [Compound I-324] as the molecule, how does the pIC50 read?
A: 4.00 to 5.00

Q: With O=C1CCc2cc(F)cc(C(=O)Nc3cccc4c3C(c3cc(F)ccc3Cl)NC4=O)c2N1 (centres unmarked) [Compound I-1545] as the molecule, how does the pIC50 read?
A: 4.00 to 5.00

Q: With O=C(Nc1cc(-c2cnc(C(O)CO)nc2)cc2c1C(c1cc(F)ccc1Cl)NC2=O)c1cc(F)cc(C(F)(F)F)c1 (centres unmarked) [Compound I-1542] as the molecule, how does the pIC50 read?
A: ≥ 7.00

Q: With Cc1cnccc1-c1cc(NC(=O)c2cc(F)cc(Cl)c2)c2c(n1)C(=O)NC2c1cc(F)ccc1Cl (centres unmarked) [Compound I-503] as the molecule, how does the pIC50 read?
A: ≥ 7.00

Q: With O=C(Nc1cc(-c2ccn3ccnc3c2)cc2c1C(c1cc(F)ccc1Cl)NC2=O)c1cc(F)cc(C(F)(F)F)c1 (centres unmarked) [Compound I-1372] as the molecule, how does the pIC50 read?
A: ≥ 7.00

Q: With O=C(Nc1cc(C#Cc2ccccn2)cc2c1C(c1cc(F)ccc1Cl)NC2=O)c1cc(F)cc(C(F)(F)F)c1 (centres unmarked) [Compound I-1185] as the molecule, how does the pIC50 read?
A: ≥ 7.00

Q: With CC(C)(O)c1cc(NC(=O)c2cc(F)cc(C(F)(F)F)c2)c2c(n1)C(=O)N[C@H]2c1cc(F)ccc1Cl [Compound I-272] as the molecule, how does the pIC50 read?
A: 6.30 to 7.00

Q: With N#CC1CN(S(=O)(=O)Cc2cc(NC(=O)c3cc(F)cc(C(F)(F)F)c3)c3c(c2)C(=O)NC3c2cc(F)ccc2Cl)C1 (centres unmarked) [Compound I-1556] as the molecule, how does the pIC50 read?
A: ≥ 7.00

Q: With O=C(Nc1cc(CS(=O)(=O)Cc2cc[n+]([O-])cc2)cc2c1C(c1cc(F)ccc1Cl)NC2=O)c1cc(F)cc(C(F)(F)F)c1 (centres unmarked) [Compound I-1471] as the molecule, how does the pIC50 read?
A: ≥ 7.00

Q: With CN(C)S(=O)(=O)n1nccc1-c1cc(NC(=O)c2cc(F)cc(C(F)(F)F)c2)c2c(c1)C(=O)NC2c1cc(F)ccc1Cl (centres unmarked) [Compound I-1439] as the molecule, how does the pIC50 read?
A: ≥ 7.00

Q: With O=C1NC(c2cc(F)ccc2Cl)c2c(NC(=O)N3C[C@@H](C(F)(F)F)[C@@H](O)C3)cc(-c3ccc4ncnn4c3)cc21 (single isomer, unassigned) [Compound I-1978] as the molecule, how does the pIC50 read?
A: 5.00 to 6.00

Q: With Cn1nccc1Nc1cc(NC(=O)c2cc(F)cc(C(F)(F)F)c2)c2c(c1)C(=O)N[C@@H]2c1cc(F)ccc1Cl [Compound I-1145] as the molecule, how does the pIC50 read?
A: 5.00 to 6.00

Q: With COCc1cc(NC(=O)c2cc(F)cc(C(F)(F)F)c2)c2c(c1)C(=O)N[C@@H]2c1cc(F)ccc1Cl [Compound I-690] as the molecule, how does the pIC50 read?
A: 6.30 to 7.00

Q: With O=C(Nc1cc(CNC2COC2)cc2c1C(c1cc(F)ccc1Cl)NC2=O)c1cc(F)cc(C(F)(F)F)c1 (centres unmarked) [Compound I-352] as the molecule, how does the pIC50 read?
A: ≥ 7.00

Q: With [2H]C([2H])(c1cc(NC(=O)c2cc(F)cc(C(F)(F)F)c2)c2c(c1)C(=O)N[C@@H]2c1cc(F)ccc1Cl)S(C)(=O)=O (single isomer, unassigned) [Compound I-1788] as the molecule, how does the pIC50 read?
A: 6.30 to 7.00

Q: With Cc1ccccc1C1NC(=O)c2c(Cl)ncc(NC(=O)c3cc(F)cc(C(F)(F)F)c3)c21 (centres unmarked) [Compound I-232, N-[4-Chloro-1-(2-methylphenyl)-3-oxo-1H,2H,3H-pyrrolo[3,4-c]pyridin-7-yl]-3-fluoro-5-(trifluoromethyl)benzamide] as the molecule, how does the pIC50 read?
A: 6.30 to 7.00

Q: With O=C(CC1CCCCC1)Nc1cc(-c2ccc3ncnn3c2)cc2c1C(c1cc(F)ccc1Cl)NC2=O (centres unmarked) [Compound I-1627] as the molecule, how does the pIC50 read?
A: 5.00 to 6.00

Q: With Cc1ccccc1[C@H]1NC(=O)c2nccc(NC(=O)N3CCc4c(F)cc(F)cc43)c21 [Compound I-230] as the molecule, how does the pIC50 read?
A: 4.00 to 5.00

Q: With Cc1ccccc1[C@H]1NC(=O)c2nccc(NC(=O)N3CCc4ccccc43)c21 [Compound I-228] as the molecule, how does the pIC50 read?
A: 4.00 to 5.00

Q: With CC(C)(O)c1cc(NC(=O)c2coc3c(F)cc(F)cc23)c2c(c1)C(=O)NC2c1cc(F)ccc1C(F)F (centres unmarked) [Compound I-290] as the molecule, how does the pIC50 read?
A: ≥ 7.00

Q: With O=C(Nc1cc(-c2cnc3nccn3c2)cc2c1C(c1cc(F)ccc1Cl)NC2=O)c1cc(F)cc(C(F)(F)F)c1 (centres unmarked) [Compound I-825] as the molecule, how does the pIC50 read?
A: ≥ 7.00

Q: With NC(=O)Cn1nc(Nc2cc(-c3ccc4ncnn4c3)cc3c2C(c2cc(F)ccc2Cl)NC3=O)c2ccccc21 (centres unmarked) [Compound I-1806] as the molecule, how does the pIC50 read?
A: 5.00 to 6.00

Q: With O=C(Nc1cc(-c2ccc3nnnn3c2)cc2c1C(c1cc(F)ccc1Cl)NC2=O)c1cc(F)cc(C(F)(F)F)c1 (centres unmarked) [Compound I-1374] as the molecule, how does the pIC50 read?
A: ≥ 7.00

Q: With C[C@H](O)c1cc(-c2ccc3ncnn3c2)cc2c1[C@@H](c1cc(F)ccc1Cl)NC2=O (single isomer, unassigned) [Compound I-2228] as the molecule, how does the pIC50 read?
A: 4.00 to 5.00

Q: With Cc1ccccc1[C@@H]1NC(=O)c2nccc(NC(=O)N3CCc4ccc(F)cc43)c21 [Compound I-246] as the molecule, how does the pIC50 read?
A: 6.30 to 7.00

Tested on: not listed separately
Assay: cells
Conditions: Homo sapiens, MCF-10A, read-out: MCF10A IC50

Q: With O=C(Nc1cccc2c1[C@H](c1cc(F)ccc1Cl)NC2=O)c1cc(F)cc(C(F)(F)F)c1 [Compound I-500] as the molecule, how does the pIC50 read?
A: > 6.00

Q: With CNC(=O)c1cc(NC(=O)c2csc3ccccc23)c2c(c1)C(=O)N[C@H]2c1ccccc1C [Compound I-76, (S)-7-(Benzo[b]thiophene-3-carboxamido)-N-methyl-3-oxo-1-(o-tolyl)isoindoline-5-carboxamide] as the molecule, how does the pIC50 read?
A: > 6.00

Q: With O=C(Nc1cc(-c2ccc3ncccc3c2)cc2c1[C@H](c1cc(F)ccc1Cl)NC2=O)c1cc(F)cc(C(F)(F)F)c1 [Compound I-894] as the molecule, how does the pIC50 read?
A: > 6.00

Q: With C[C@]1(C(=O)Nc2cc(Br)cc3c2[C@@H](c2cc(F)ccc2Cl)NC3=O)CCC[C@@H](C(F)(F)F)C1 (single isomer, unassigned) [Compound I-2261] as the molecule, how does the pIC50 read?
A: > 6.00

Q: With O=C1NC(c2cc(F)ccc2Cl)c2c(NC(=O)N3CC(O)c4ccc(Cl)cc43)cccc21 (mixture of isomers) [Compound I-2464] as the molecule, how does the pIC50 read?
A: 5.00 to 5.30

Q: With O=C1N[C@@H](c2cc(F)ccc2Cl)c2c(NC(=O)N3C[C@@](O)(C(F)(F)F)c4cc(F)ccc43)cccc21 (single isomer, unassigned) [Compound I-2518] as the molecule, how does the pIC50 read?
A: > 6.00

Q: With N#Cc1c(-c2cc(NC(=O)c3cc(F)cc(C(F)(F)F)c3)c3c(c2)C(=O)N[C@@H]3c2cc(F)ccc2Cl)ccc2ncnn12 (single isomer, unassigned) [Compound I-1647] as the molecule, how does the pIC50 read?
A: 5.30 to 6.00

Q: With N#Cc1c(-c2cc(NC(=O)c3cc(F)cc(C(F)(F)F)c3)c3c(c2)C(=O)N[C@H]3c2cc(F)ccc2Cl)ccc2ncnn12 (single isomer, unassigned) [Compound I-1648] as the molecule, how does the pIC50 read?
A: > 6.00
